Laboratory results reported in patent US10471095B2, “Suspension of graphene oxide nanoflakes in water, its use and a method of preparation thereof” (priority 2014, dated 2019).

Test system: chicken embryo
Experiment: Toxicity of graphene oxide and nano-Pt in chicken embryo (in ovo)
Details: in vivo
Description: Biological models: study was conducted on models: 1. Chicken embryo maintained by in ovo method, which above all allowed for fast, accurate and insightful observations of potential toxicity, especially embryotoxicity of graphene oxide and Pt nanoparticles of various concentrations. 2. Glioblastoma multiforme GM (U-87) cell lines in order to observe basic mechanisms occurring in the cells under the influence of graphene oxide and platinum nanoparticles and having selected the used experimental factors 3. Glioblastoma multiforme (U-87) tumour grown by in ovo method in order to confirm or reject the preliminary results. This study allowed for the final verification of formulated hypotheses.
Step I—preliminary study—determination of potential toxic properties of graphene oxide and nano-Pt in contact with a living organism (chicken embryo) • Determination of the influence of graphene oxide and nano-Pt on homeostasis of the organism of chicken embryo (survival rate, growth and development, biochemical and morphological indicators of blood, expression of selected genes, image of microstructure and ultrastructure of the brain, apoptosis/necrosis and others). […] The study indicated a potential antitumor effect of Pt nanoparticles and a low degree of toxicity.

graphene oxide
toxic effects on biochemical and morphological indicators of blood, FGF, VEGF, PCNA gene expression, microstructure and ultrastructure of brain and liver: does not exhibit toxic effects
